{
  "source": "ChEMBL document CHEMBL1158201",
  "about": "“Barbamide, a chlorinated metabolite with molluscicidal activity from the Caribbean cyanobacterium Lyngbya majuscula” (J Nat Prod, 1996)",
  "type_in_all_cases": "organism-based",
  "details_in_all_cases": "in vivo",
  "key": {"[1]": {"assay": "Ichthyotoxicity in Carassius auratus"}, "Biomphalaria glabrata": {"tested_on": "Biomphalaria glabrata", "assay": "Molluscicidal activity against Biomphalaria glabrata after 24 hrs"}, "[2]": {"assay": "Toxicity in Artemia salina"}},
  "data": [
    {"smiles": "C=C1CC(=O)N[C@@H](C)C(=O)N(C)[C@@H](C(C)C)C(=O)NCC(=O)O[C@@H](/C(C)=C/C(C)=C/C(C)(C)C)[C@@H]1C", "note": "[ANTILLATOXIN]", "values": [
      {"measurement": "LC50", "setting": "[1]", "result": 0.05, "unit": "µg/mL"}
    ]},
    {"smiles": "CO/C(=C/C(=O)N(C)C(Cc1ccccc1)c1nccs1)CC(C)C(Cl)(Cl)Cl", "note": "(centres undefined) [BARBAMIDE]", "values": [
      {"measurement": "LC100", "setting": "Biomphalaria glabrata", "result": 100, "unit": "µg/mL"}
    ]},
    {"smiles": "C=CC[C@@H](CC/C(C)=C/C=C/CC/C=C\\[C@@H]1CSC([C@@H]2C[C@@H]2C)=N1)OC", "note": "[CURACIN A]", "values": [
      {"measurement": "LC50", "setting": "[2]", "result": 0.0025, "unit": "µg/mL"}
    ]},
    {"smiles": "C=C(CCNC(=O)CC/C=C/C[C@H](CCCCCCC)OC)[C@@]12O[C@@H]1CC=C(C)C2=O", "note": "[MALYNGAMIDE H]", "values": [
      {"measurement": "LC50", "setting": "[1]", "result": 5, "unit": "µg/mL"}
    ]}
  ]
}
